{
  "source": "patent US5646130A",
  "about": "“Low molecular weight sulfated polysaccharides and uses thereof” (priority 1995, dated 1997)",
  "key": {"hyperlipoproteinemia": {"system": "hyperlipoproteinemia", "assay": "Anti-hyperlipoproteinic activity in rats", "assay_type": "in vivo, rat", "details": "300 mg/Kg PO", "source_text": "The pharmacological activity increased with oral dose levels."}, "white blood cells": {"system": "white blood cells", "assay": "Cyclophosphamide immunosuppression in albino mice", "assay_type": "in vivo", "details": "cyclophosphamide alone", "source_text": "These compounds provided herein can also be used for enhancing cellular and humoral immunological activities. In particular, these compositions and compounds prevent or reduce the immunosuppressive side-effects associated with the administration of alkylating agents, such as cyclophosphamide, for treatment of certain cancers."}, "[1]": {"system": "rabbit blood clot formation", "assay": "Ex vivo anti-thrombotic activity in treated rabbits (clot wet weight)", "details": "83 u/kg", "method": "Blood [1 ml] was removed from the carotid artery of treated animals and quickly injected into clot formation tubes. […] The wet weight of the clot was determined. The clot was dried at 60° C. overnight, and dry weight was determined."}, "[2]": {"system": "preformed rabbit blood clot", "assay": "Ex vivo thrombolysis of preformed rabbit blood clot", "details": "335 U/ml", "method": "A rabbit arterial blood clot [1 ml] was preformed at 37° C., for 60 min. The clot was incubated in vitro with the drug (0.1 ml, 6 groups) in the clot forming tube at 37° C. for 60 min. At the end of the incubation, the clot was removed and its wet weight determined. It was then dried overnight and its dry weight was determined."}, "thrombus formation": {"system": "thrombus formation", "assay": "Comparison of (M9 G)2 and heparin, thrombosis assay, Experiment 2", "assay_type": "in vivo, rabbit", "details": "83 u/kg", "method": "Rabbits were anesthetized and surgically instrumented using an established method in which the right carotid artery was connected via a polyethylene tube to the left external […]. A 15 cm [#4] surgical wire was left in the polyethylene tubing for thrombus formation. The animals were then treated with saline or drug intravenously for 10 minutes and the arterial-venous shunt was connected to allow blood flow for 15 minutes. The wire was then retrieved and weighed to determine the thrombus weight."}, "[3]": {"system": "fibrinolysis (euglobulin lysis)", "assay": "Euglobulin lysis time in rabbits", "assay_type": "in vivo, rabbit", "details": "iv 333 U/Kg", "quoted_text": "ELT:englobulin (euglobulin) lysis time; a measurement of in vivo plasmin"}, "[4]": {"system": "fibrin degradation protein (FDP)", "assay": "Fibrinolysis activity in rabbits (FDP, fibrinogen)", "assay_type": "in vivo, rabbit", "details": "iv 333 U/Kg"}},
  "data": [
    {"molecule": "CCOC(=O)C(C)(C)Oc1ccc(Cl)cc1", "note": "[clofibrate]", "values": [
      {"measurement": "MDA", "setting": "hyperlipoproteinemia", "value": 1.2, "unit": "mmol/L"},
      {"measurement": "PTC (percent inhibition of total cholesterol)", "setting": "hyperlipoproteinemia", "value": 53, "unit": "%"},
      {"measurement": "TC", "setting": "hyperlipoproteinemia", "value": 4.0, "unit": "mmol/L"},
      {"measurement": "TG", "setting": "hyperlipoproteinemia", "value": 0.4, "unit": "mmol/L"}
    ]},
    {"molecule": "O=P1(N(CCCl)CCCl)NCCCO1", "note": "(centres unmarked) [cyclophosphamide]", "values": [
      {"measurement": "White blood cell counts", "setting": "white blood cells", "value": "close to zero"}
    ]},
    {"molecule": "heparin", "values": [
      {"measurement": "Clot wet weight, 15 min after", "setting": "[1]", "value": "2.0 ± 4.5", "unit": "mg"},
      {"measurement": "Clot wet weight, 60 min after", "setting": "[1]", "value": "51 ± 23", "unit": "mg"},
      {"measurement": "% Dissolution", "setting": "[2]", "value": "4.7 ± 8.5", "unit": "%"},
      {"measurement": "Clot dry weight", "setting": "[2]", "value": "14.1 ± 3.2"},
      {"measurement": "Clot wet weight", "setting": "[2]", "value": "56 ± 9"},
      {"measurement": "Wet weight inhibition, 15 min", "setting": "thrombus formation", "value": 97},
      {"measurement": "Wet weight inhibition, 60 min", "setting": "thrombus formation", "value": 20},
      {"measurement": "Wet weight inhibition, 120 min", "setting": "thrombus formation", "value": 0},
      {"measurement": "ELT time, 15 min post", "setting": "[3]", "value": 124, "unit": "min"},
      {"measurement": "ELT time, 60 min post", "setting": "[3]", "value": 197, "unit": "min"},
      {"measurement": "FDP, 15 min post", "setting": "[4]", "value": "18 ± 9", "unit": "mg/L"},
      {"measurement": "FDP, 60 min post", "setting": "[4]", "value": "6 ± 6.", "unit": "mg/L"}
    ]}
  ]
}
